From US12319708B2, “Agonists of peroxisome proliferator-activated receptor alpha (PPARα) and methods of use” (The Board of Regents of the University of Oklahoma, priority 2018, dated 2025) come the findings set out here.

A word on the EC50: it is the concentration needed to bring the measured effect to its halfway point.

Each structure is given as a SMILES string. Read-outs that look alike come from different tables or passages of the source. Where only a bound is given, the exact number is not on record here.

Series [1] concerns PPARα target genes (Acadm, Cpt1a, Fabp3, Slc25a20) in 661W cells. As to the kind of experiment: RT-PCR of PPARα target genes in 661W cells. In kind it is cell-based, mouse. Conditions: 24 h. As to the method:
(§1) To further confirm that this 4-benzyloxy-benzylamino chemotype acts as a PPARα agonist, we evaluated compound 10 in various biochemical assays. […] Compound 10 was also evaluated in an in vitro wound healing assay utilizing human retinal capillary endothelial cells (HRCEC).

The target of a further series is T1, hPPARδ (Homo sapiens, UniProt Q03181).
T1 construct: expressed in transfected cells
T1 sequence (Q03181 1-441): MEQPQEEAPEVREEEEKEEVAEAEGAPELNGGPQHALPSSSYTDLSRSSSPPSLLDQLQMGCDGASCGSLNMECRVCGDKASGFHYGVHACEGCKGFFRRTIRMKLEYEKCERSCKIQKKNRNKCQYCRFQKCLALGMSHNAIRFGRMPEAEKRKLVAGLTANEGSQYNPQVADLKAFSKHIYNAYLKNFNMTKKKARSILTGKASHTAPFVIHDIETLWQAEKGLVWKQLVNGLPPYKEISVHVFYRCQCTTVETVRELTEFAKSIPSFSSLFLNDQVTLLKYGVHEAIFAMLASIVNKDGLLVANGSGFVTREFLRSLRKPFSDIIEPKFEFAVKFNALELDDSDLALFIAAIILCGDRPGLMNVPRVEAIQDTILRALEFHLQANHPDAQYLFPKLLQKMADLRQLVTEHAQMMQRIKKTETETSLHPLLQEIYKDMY
As to the kind of experiment: PPARδ luciferase reporter cell-line assay (Indigo Biosciences). In kind it is cell-based. Here is the method: (§2) Luciferase assays were conducted on isogenic cell-lines engineered to overexpress either PPARδ or PPARγ with expression of the requisite luciferase reporter gene dependent upon exogenous activation of each isoform.
For orientation: In a reporter assay the amount or activity of a reporter protein is the signal.

Another series deals with T2, hPPARγ (Homo sapiens, UniProt P37231).
T2 construct: expressed in transfected cells
T2 sequence (P37231 1-505): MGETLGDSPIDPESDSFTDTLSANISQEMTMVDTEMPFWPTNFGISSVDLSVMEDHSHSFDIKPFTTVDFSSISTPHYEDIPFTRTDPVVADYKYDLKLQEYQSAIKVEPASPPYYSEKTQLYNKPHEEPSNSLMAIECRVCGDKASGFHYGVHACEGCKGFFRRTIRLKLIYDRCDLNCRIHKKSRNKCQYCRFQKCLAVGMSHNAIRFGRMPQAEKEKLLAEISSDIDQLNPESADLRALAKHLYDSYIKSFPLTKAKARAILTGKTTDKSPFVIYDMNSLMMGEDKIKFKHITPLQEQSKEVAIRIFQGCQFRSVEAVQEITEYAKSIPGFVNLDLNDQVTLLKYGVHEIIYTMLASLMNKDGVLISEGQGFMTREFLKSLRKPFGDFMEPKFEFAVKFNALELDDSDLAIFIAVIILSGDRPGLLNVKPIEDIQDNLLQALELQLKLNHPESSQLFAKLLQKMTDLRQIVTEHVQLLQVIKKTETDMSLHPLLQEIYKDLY
As to the kind of experiment: PPARγ luciferase reporter cell-line assay (Indigo Biosciences). In kind it is cell-based. Here is the method: as §2

Series [2] concerns PPARα expression in 661W cells. Put plainly: Western blot analysis of PPARα expression in 661W cells. Type of series: cell-based, mouse. Conditions: 24 h, 10, 50 and 100 μM. As to the method: as §1
On the technique in general: In western blotting, separated proteins are transferred to a membrane and probed.

In series [3] the test system is retinal vascular leakage in diabetic rats. Put plainly: STZ-rat model of diabetic retinopathy, retinal permeability. Type of series: in vivo. Here is the method:
7-8 week-old male Brown Norway rats were injected with streptozotocin (STZ, 55 mg/kg).

In series [4] the test system is liver phenotype of STZ diabetic rats. As to the kind of experiment: STZ-rat model, liver phenotype and toxicity. Type of series: in vivo. As to the method:
7-8 week-old male Brown Norway rats were injected with streptozotocin (STZ, 55 mg/kg). Two weeks after STZ injections, daily treatment (i.p. injection) with ASD091 or FenoFA commenced and lasted for 26-28 days. ≠P<0.05 (vs. FenoFA), *P<0.05 (vs. STZ-DMSO).

Setting [5] is: STZ diabetic Brown Norway rats, daily i.p. injection 26-28 days.
Where [6] appears, read: inferred from efficacy after systemic administration.

For `COc1ccc(COc2ccc(CNc3cccc(C(=O)O)c3)cc2)cc1` [Compound 91], the “expression of PPARα target genes (Acadm, Cpt1a, Fabp3, Slc25a20)” value in series [1] is “induces the expression of various PPARα target genes”. In addition, the EC50 on hPPARδ (Table 6, cellular luciferase activity, read-out: δ EC50) was above 100 µM; on hPPARδ (luciferase reporter cell-line, triplicate, single experiment, read-out: hPPARδ EC50), above 100 µM; at hPPARγ (Table 6, cellular luciferase activity, read-out: γ EC50), above 100 µM; on hPPARγ (luciferase reporter cell-line, triplicate, single experiment, read-out: hPPARγ EC50), above 100 µM. For the same compound, the “expression of PPARα (Western blot, densitometry)” value in series [2] is recorded as “induced the expression of PPARα in a dose-dependent manner”. Further, the retinal vascular leakage result in series [3] (setting [5]) is recorded as “reduces retinal vascular leakage in diabetic rats”. Besides, the “bioavailability” value in series [3] (setting [6]) is “is bioavailable”. For the same compound, the blood-ocular barrier crossing result in series [3] (setting [6]) is “crosses blood-ocular barrier and reaches the retina”. Further, in series [4] (setting [5]), the signs of hepatomegaly entry is given as “seems to lack signs of hepatomegaly”. In addition, the observable toxicity result in series [4] (daily injection for one-month) is recorded as “no observable toxicity”.
